We go through eleven molecules from patent US10556888B2, “Pyrazole compounds or salts thereof, preparation methods therefor, herbicidal compositions and use thereof” (QINGDAO KINGAGROOT CHEMICAL COMPOUNDS CO., LTD, priority 2015, dated 2020).

The test system of data set [1] is Monocotyledonous and dicotyledonous weed. Put plainly: Post-emergence test experiment, weed control effect (Table 2). It is filed as in vivo. The arrangement: key to weed control effect, Setaria viridis (level) / weed control effect, Rorippa indica (level) / weed control effect, Abutilon theophrasti (level) / weed control effect, Echinochloa crus-galli (level) / weed control effect, Digitaria sanguinalis (level): Level 10: completely dead; Level 9: above 90% growth inhibition rate; Level 8: above 80% growth inhibition rate; Level 7: above 70% growth inhibition rate; Level 6: above 60% growth inhibition rate; Level 5: above 50% growth inhibition rate; Level 4: above 30% growth inhibition rate; Level 3: above 20% growth inhibition rate; Level 2: above 10% growth inhibition rate; Level 1: above 1-10% growth inhibition rate; Level 0: no effect. The settings on record: 3 weeks after spraying, greenhouse. The method in brief: (§1)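 Compounds, dissolved in acetone, mixed with Tween 80 and diluted in water, were sprayed post-emergence onto greenhouse-grown weeds and crops at the 2-3 leaf stage (2-3 weeks post-sowing). Plants then grown 3 more weeks in the greenhouse before evaluation.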

For data set [2], the system named is main crop (wheat, corn, rice, soybean, cotton, oilseed, millet and sorghum). The experiment in a line: Post-emergence test experiment, main crops (Table 2). It is filed as in vivo. Also noted: key: Level 10: completely dead; Level 9: above 90% growth inhibition rate; Level 8: above 80% growth inhibition rate; Level 7: above 70% growth inhibition rate; Level 6: above 60% growth inhibition rate; Level 5: above 50% growth inhibition rate; Level 4: above 30% growth inhibition rate; Level 3: above 20% growth inhibition rate; Level 2: above 10% growth inhibition rate; Level 1: above 1-10% growth inhibition rate; Level 0: no effect. The following applies: 3 weeks after spraying, greenhouse. The method in brief:
as §1

On to `C#CCOCc1c(S(C)(=O)=O)ccc(C(=O)c2c(C)nn(C)c2OC(=O)c2cnn(C)c2)c1Cl` [Compound 69], for which, in data set [1] (30 g/ha), the “weed control effect, Abutilon theophrasti (level)” value was 7 (Level 7: above 70% growth inhibition rate); the “weed control effect, Bidens pilosa (level)” value is given as 7 (Level 7: above 70% growth inhibition rate); the “weed control effect, Digitaria sanguinalis (level)” value is on record as 6 (Level 6: above 60% growth inhibition rate); the “weed control effect, Echinochloa crus-galli (level)” value was found to be 10. In addition, in data set [1] (30 g/ha), the “weed control effect, Rorippa indica (level)” value was determined as 10 and the “weed control effect, Setaria viridis (level)” value is on record as 6 (Level 6: above 60% growth inhibition rate). For the same molecule, in data set [2] (30 g/ha), the “effect on crop, corn (level)” value is 0; the “effect on crop, rice (level)” value is recorded as 3 (Level 3: above 20% growth inhibition rate); the “effect on crop, wheat (level)” value stood at 0.

Take `CCOCc1c(S(C)(=O)=O)ccc(C(=O)c2c(C3CC3)nn(C)c2OC(=O)c2cnn(C)c2)c1Cl` [Compound 70]: in data set [1] (30 g/ha), the “weed control effect, Abutilon theophrasti (level)” value is on record as 7 (Level 7: above 70% growth inhibition rate); the “weed control effect, Bidens pilosa (level)” value is 7 (Level 7: above 70% growth inhibition rate); the “weed control effect, Digitaria sanguinalis (level)” value was 10; the “weed control effect, Echinochloa crus-galli (level)” value is 10. Besides, in data set [1] (30 g/ha), the “weed control effect, Rorippa indica (level)” value worked out at 10 and the “weed control effect, Setaria viridis (level)” value is 10. In data set [2] (30 g/ha), the “effect on crop, corn (level)” value was 3 (Level 3: above 20% growth inhibition rate); the “effect on crop, rice (level)” value is on record as 3 (Level 3: above 20% growth inhibition rate); the “effect on crop, wheat (level)” value was 0.

In the case of `Cn1cc(C(=O)Oc2c(C(=O)c3ccc(S(C)(=O)=O)c(COCC(F)(F)C(F)F)c3Cl)c(C3CC3)nn2C)cn1` [Compound 71], in data set [1] (30 g/ha), the “weed control effect, Abutilon theophrasti (level)” value is 6 (Level 6: above 60% growth inhibition rate); the “weed control effect, Bidens pilosa (level)” value is 8 (Level 8: above 80% growth inhibition rate); the “weed control effect, Digitaria sanguinalis (level)” value is recorded as 7 (Level 7: above 70% growth inhibition rate); the “weed control effect, Echinochloa crus-galli (level)” value is reported as 8 (Level 8: above 80% growth inhibition rate). Further, in data set [1] (30 g/ha), the “weed control effect, Rorippa indica (level)” value is listed as 10 and the “weed control effect, Setaria viridis (level)” value is on record as 5 (Level 5: above 50% growth inhibition rate). Besides, in data set [2] (30 g/ha), the “effect on crop, corn (level)” value turned out to be 0; the “effect on crop, rice (level)” value is listed as 3 (Level 3: above 20% growth inhibition rate); the “effect on crop, wheat (level)” value was determined as 0.

As for `COCc1c(S(C)(=O)=O)ccc(C(=O)c2c(C3CC3)nn(C)c2OC(=O)c2cnn(C)c2)c1Cl` [Compound 72], in data set [1] (30 g/ha), the “weed control effect, Abutilon theophrasti (level)” value is given as 7 (Level 7: above 70% growth inhibition rate); the “weed control effect, Bidens pilosa (level)” value is 7 (Level 7: above 70% growth inhibition rate); the “weed control effect, Digitaria sanguinalis (level)” value was 8 (Level 8: above 80% growth inhibition rate); the “weed control effect, Echinochloa crus-galli (level)” value was 10. Moreover, in data set [1] (30 g/ha), the “weed control effect, Rorippa indica (level)” value is 10 and the “weed control effect, Setaria viridis (level)” value is recorded as 8 (Level 8: above 80% growth inhibition rate). Besides, in data set [2] (30 g/ha), the “effect on crop, corn (level)” value is reported as 2 (Level 2: above 10% growth inhibition rate); the “effect on crop, rice (level)” value is reported as 3 (Level 3: above 20% growth inhibition rate); the “effect on crop, wheat (level)” value came to 0.

As to `CCOCc1c(S(C)(=O)=O)ccc(C(=O)c2c(C)nn(C)c2OC(=O)c2cnn(C)c2)c1Cl` [Compound 73], in data set [1] (30 g/ha), the “weed control effect, Abutilon theophrasti (level)” value is listed as 7 (Level 7: above 70% growth inhibition rate); the “weed control effect, Bidens pilosa (level)” value is 7 (Level 7: above 70% growth inhibition rate); the “weed control effect, Digitaria sanguinalis (level)” value is listed as 9 (Level 9: above 90% growth inhibition rate); the “weed control effect, Echinochloa crus-galli (level)” value worked out at 10. Besides, in data set [1] (30 g/ha), the “weed control effect, Rorippa indica (level)” value is on record as 10 and the “weed control effect, Setaria viridis (level)” value was 9 (Level 9: above 90% growth inhibition rate). Further, in data set [2] (30 g/ha), the “effect on crop, corn (level)” value amounted to 0; the “effect on crop, rice (level)” value is 3 (Level 3: above 20% growth inhibition rate); the “effect on crop, wheat (level)” value came to 0.

For `CCOCCOCc1c(S(C)(=O)=O)ccc(C(=O)c2c(C3CC3)nn(C)c2OC(=O)c2cnn(C)c2)c1Cl` [Compound 74], in data set [1] (30 g/ha), the “weed control effect, Abutilon theophrasti (level)” value was 7 (Level 7: above 70% growth inhibition rate); the “weed control effect, Bidens pilosa (level)” value is reported as 5 (Level 5: above 50% growth inhibition rate); the “weed control effect, Digitaria sanguinalis (level)” value is reported as 6 (Level 6: above 60% growth inhibition rate); the “weed control effect, Echinochloa crus-galli (level)” value was found to be 10. In data set [1] (30 g/ha), the “weed control effect, Rorippa indica (level)” value worked out at 10 and the “weed control effect, Setaria viridis (level)” value is reported as 6 (Level 6: above 60% growth inhibition rate). Further, in data set [2] (30 g/ha), the “effect on crop, corn (level)” value amounted to 0; the “effect on crop, rice (level)” value is on record as 3 (Level 3: above 20% growth inhibition rate); the “effect on crop, wheat (level)” value is recorded as 0.

Turning to `CCCCOCc1c(S(C)(=O)=O)ccc(C(=O)c2c(C3CC3)nn(C)c2OC(=O)c2cnn(C)c2)c1Cl` [Compound 75], in data set [1] (30 g/ha), the “weed control effect, Abutilon theophrasti (level)” value was 5 (Level 5: above 50% growth inhibition rate); the “weed control effect, Bidens pilosa (level)” value is listed as 6 (Level 6: above 60% growth inhibition rate); the “weed control effect, Digitaria sanguinalis (level)” value is reported as 9 (Level 9: above 90% growth inhibition rate); the “weed control effect, Echinochloa crus-galli (level)” value turned out to be 10. Further, in data set [1] (30 g/ha), the “weed control effect, Rorippa indica (level)” value is on record as 10 and the “weed control effect, Setaria viridis (level)” value is 7 (Level 7: above 70% growth inhibition rate). Moreover, in data set [2] (30 g/ha), the “effect on crop, corn (level)” value stood at 0; the “effect on crop, rice (level)” value is reported as 3 (Level 3: above 20% growth inhibition rate); the “effect on crop, wheat (level)” value worked out at 0.

Turning to `Cc1nn(C)cc1C(=O)Oc1c(C(=O)c2ccc(S(C)(=O)=O)c(Cn3cccn3)c2C)cnn1C` [Compound 77], in data set [1] (30 g/ha), the “weed control effect, Abutilon theophrasti (level)” value is 7 (Level 7: above 70% growth inhibition rate); the “weed control effect, Bidens pilosa (level)” value is reported as 7 (Level 7: above 70% growth inhibition rate); the “weed control effect, Digitaria sanguinalis (level)” value is given as 7 (Level 7: above 70% growth inhibition rate); the “weed control effect, Echinochloa crus-galli (level)” value is 10. For the same molecule, in data set [1] (30 g/ha), the “weed control effect, Rorippa indica (level)” value was determined as 10 and the “weed control effect, Setaria viridis (level)” value was found to be 10. For the same molecule, in data set [2] (30 g/ha), the “effect on crop, corn (level)” value is listed as 1 (Level 1: above 1-10% growth inhibition rate); the “effect on crop, rice (level)” value was 3 (Level 3: above 20% growth inhibition rate); the “effect on crop, wheat (level)” value was 0.

With `Cc1c(C(=O)c2c(C3CC3)nn(C)c2OC(=O)c2cnn(C)c2)ccc(S(C)(=O)=O)c1COCC(F)(F)F` [Compound 78], in data set [1] (30 g/ha), the “weed control effect, Abutilon theophrasti (level)” value was 7 (Level 7: above 70% growth inhibition rate); the “weed control effect, Bidens pilosa (level)” value is on record as 7 (Level 7: above 70% growth inhibition rate); the “weed control effect, Digitaria sanguinalis (level)” value was 7 (Level 7: above 70% growth inhibition rate); the “weed control effect, Echinochloa crus-galli (level)” value is given as 10. For the same molecule, in data set [1] (30 g/ha), the “weed control effect, Rorippa indica (level)” value came to 10 and the “weed control effect, Setaria viridis (level)” value is given as 10. Moreover, in data set [2] (30 g/ha), the “effect on crop, corn (level)” value is recorded as 1 (Level 1: above 1-10% growth inhibition rate); the “effect on crop, rice (level)” value is 3 (Level 3: above 20% growth inhibition rate); the “effect on crop, wheat (level)” value is given as 0.

In the case of `Cc1cc(C)n(Cc2c(S(C)(=O)=O)ccc(C(=O)c3c(C)nn(C)c3OC(=O)c3cnn(C)c3)c2C)n1` [Compound 79], in data set [1] (120 g/ha), the “weed control effect, Abutilon theophrasti (level)” value is 6 (Level 6: above 60% growth inhibition rate); the “weed control effect, Bidens pilosa (level)” value was 6 (Level 6: above 60% growth inhibition rate); the “weed control effect, Digitaria sanguinalis (level)” value is recorded as 1 (Level 1: above 1-10% growth inhibition rate); the “weed control effect, Echinochloa crus-galli (level)” value was found to be 10. In data set [1] (120 g/ha), the “weed control effect, Rorippa indica (level)” value was 4 (Level 4: above 30% growth inhibition rate) and the “weed control effect, Setaria viridis (level)” value is reported as 3 (Level 3: above 20% growth inhibition rate). Besides, in data set [2] (120 g/ha), the “effect on crop, corn (level)” value is 0; the “effect on crop, rice (level)” value is on record as 0; the “effect on crop, wheat (level)” value stood at 0.

In the case of `CCOCc1c(S(C)(=O)=O)ccc(C(=O)c2cnn(C)c2OC(=O)c2cnn(C)c2OCC)c1C` [Compound 80], in data set [1] (30 g/ha), the “weed control effect, Abutilon theophrasti (level)” value is listed as 6 (Level 6: above 60% growth inhibition rate); the “weed control effect, Bidens pilosa (level)” value is listed as 7 (Level 7: above 70% growth inhibition rate); the “weed control effect, Digitaria sanguinalis (level)” value is 7 (Level 7: above 70% growth inhibition rate); the “weed control effect, Echinochloa crus-galli (level)” value worked out at 10. In data set [1] (30 g/ha), the “weed control effect, Rorippa indica (level)” value worked out at 10 and the “weed control effect, Setaria viridis (level)” value is on record as 6 (Level 6: above 60% growth inhibition rate). Further, in data set [2] (30 g/ha), the “effect on crop, corn (level)” value stood at 0; the “effect on crop, rice (level)” value was 3 (Level 3: above 20% growth inhibition rate); the “effect on crop, wheat (level)” value was determined as 0.
